Data taken from patent publication US5211945A, “Compositions and methods for modulating the effect of TNF and IL-1” (priority 1986, dated 1993).
Numbered stars: 1 amine (or outer) side, 2 acyl side, 3 side chain; on linkers, the order of the positions; unused ones are H or OH. Bridge positions count the residues as written; N and C are the ends. Square brackets hold non-standard residues; d marks the D form. Peptide text beside a SMILES is read from it. I, II: the chains in the order shown. Actinocin(9to1) = Cc1c2oc3c(C)ccc(C(=O)[*:1])c3nc-2c(C(=O)[*:2])c(N)c1=O; NMeV = CN[C@H](C(=O)O)C(C)C; Sar = CNCC(=O)O

Columns and labels:
Balb/c mice = assay: Lethality of TNF and IL-1 in mice sensitized with Act-D or GalN; assay type: in vivo, mouse; conditions: i.p., sensitizer injected 10 minutes before TNF or IL-1
Experimental: Nine to thirteen weeks old Balb/c mice were used in all experiments. TNF, IL-1, LPS, actinomycin-D (Act-D) and D-galactosamine (GalN) were solubilized in PBS and injected i.p.; each in aliquots of 0.5 ml. For lethality determination TNF, IL-1 or LPS were administered alone or 10 minutes following injection of Act-D or GalN; for desensitization experiments mice were injected with TNF or IL-1 12 h prior to a challenge consisting of the same regimen as the lethality testing. Following treatments the mice were continuously observed for a period of 72 h in order to determine the time of their death. In all cases, mice that survived 72 h appeared completely normal at that time. […] All experiments were performed in duplicate with qualitatively the same results. Two mice were examined for each experimental point, in each of the experiments. Their actual survival time as well as the average of the survival time of the two mice used for each of the points are presented.
In an attempt to elucidate the nature of the sensitizing effect of Act-D and of GalN, it was tested whether injection of TNF or IL-1 in the absence of these agents affects the response of mice to a subsequent injection of TNF or IL-1 together with Act-D or GalN. […]

[1] = system: receptors for TNF on SV-80 cells; assay: Binding of radiolabelled TNF to SV-80 cells, Scatchard plot analysis; assay type: cell-based, human; conditions: Scatchard analysis of 125I-TNF binding
Experimental: (PMA-4-beta-phorbol-12-myristate-13-acetate).
Binding of ^125 I-rTNF (at 3.6 ng/ml), ^125 I-rIL-1 (at 49 ng/ml) and ^125 I-rIFN-gamma (at 13 ng/ml) to the indicated cells was determined at […] as described below. Competition of IL-1 and TNF with each other for binding to their receptors was examined by applying the nonlabelled cytokines, at the indicated concentrations, simultaneously with the labelled proteins to the binding asay. The effect of pretreatment with IL-1 or TNF was examined by applying the proteins on the cells at 37° C. for 4 h prior to application of the labelled cytokines. Human TNF and IFN-gamma were radiolabelled as previously described (30, 44); the first with the chloramine T reagent to specific radioactivity of 42 Ci/g, and the second with the Bolton and Hunter reagent to specific radioactivity of 18 Ci/g. IL-1 was radioiodinated with the chloramine T reagent (31) to specific radioactivity of 40 Ci/g. Recovery of bioactivity following the iodination, as estimated by measuring the protective effect of the protein against the cytotoxicity of TNF (25) was over 95%. […] Specific binding was calculated by subtracting the values of nonspecific binding from the binding observed with the labelled cytokines alone. […]

SV-80 cells = assay: Sensitization of SV-80 cells to the cytolytic effect of TNF, neutral red uptake; assay type: cell-based, human; conditions: for Cell viability upon treatment with TNF (500 U/ml), pretreatment with IL-1 (2 U/ml), OD540 / Cell viability upon treatment with TNF (500 U/ml), pretreatment with IL-1 (2 U/ml), %: 4 h pretreatment with IL-1 2 U/ml; for Cell viability upon treatment with TNF (500 U/ml), pretreatment with IL-1 (2 U/ml), OD540 / Cell viability upon treatment with TNF (500 U/ml), pretreatment with IL-1 (2 U/ml), % / Cell viability upon treatment with TNF (500 U/ml), pretreatment with TNF (20 U/ml), OD540 / Cell viability upon treatment with TNF (500 U/ml), pretreatment with TNF (20 U/ml), %: then TNF 500 U/ml for 12 h with sensitizing agent; for Cell viability upon treatment with TNF (500 U/ml), pretreatment with IL-1 (2 U/ml), % / Cell viability upon treatment with TNF (500 U/ml), pretreatment with TNF (20 U/ml), %: % of sensitizing agent alone; for Cell viability upon treatment with TNF (500 U/ml), pretreatment with TNF (20 U/ml), OD540 / Cell viability upon treatment with TNF (500 U/ml), pretreatment with TNF (20 U/ml), %: 4 h pretreatment with TNF 20 U/ml; for Cell viability in absence of TNF, OD540: 12 h with sensitizing agent alone (cycloheximide 50 μg/ml, emetine 10 μg/ml, actinomycin D 5 μg/ml); for Cell viability upon treatment with TNF (500 U/ml), no pretreatment, OD540: TNF 500 U/ml for 12 h together with sensitizing agent; for Cell viability upon treatment with TNF (500 U/ml), no pretreatment, %: TNF 500 U/ml for 12 h with sensitizing agent, % of viability with sensitizing agent alone
Experimental: Cytolytic and protective (desensitization) activities of the cytokines were determined in all the figures using SV-80 cells which, for measurement of cytolytic activity, were incubated with serial dilutions of the tested cytokine for 12 hours together with 50 μg/ml CHI; for measuring protective activity, they were incubated for 4 hours with the tested cytokine and then for 12 hours with TNF, at the indicated concentrations, together with 50 μg/ml CHI. The extent of cell killing was quantitated by the neutral-red uptake assay. A unit of cytolytic activity is defined as the concentration of the tested cytokine at which the amount of cells remaining viable was 50% of those that remained viable on incubation with CHI alone. A unit of protective activity is defined as that cytokine concentration protecting 50% of the cells from killing by TNF.
IL-1 or TNF provide protection not only against the cytotoxicity mediated in the presence of CHI, but also against killing of cells in which synthesis of proteins has been suppressed by other agents.
SV-80 cells following 4 h pretreatment with IL1 or TNF or without such
pretreatment were tested for their vulnerability to the cytolytic effect
of TNF applied for 12 h together with the indicated sensitizing agents.
Viability of the cells is presented as neutral red uptake (OD540)
and, in cultures with TNF, percentagewise as compared to the viability in
cultures incubated with the sensitizing agent alone.

SMILES | Sensitization of mice to the lethal effect of TNF and IL-1 (Balb/c mice) | Effect on number and affinity of binding sites for TNF [1] | Cell viability upon treatment with TNF (500 U/ml), pretreatment with IL-1 (2 U/ml), OD540 (SV-80 cells) [OD540] | Cell viability upon treatment with TNF (500 U/ml), pretreatment with IL-1 (2 U/ml), % (SV-80 cells) [%] | Cell viability upon treatment with TNF (500 U/ml), pretreatment with TNF (20 U/ml), OD540 (SV-80 cells) [OD540] | Cell viability upon treatment with TNF (500 U/ml), pretreatment with TNF (20 U/ml), % (SV-80 cells) [%] | Cell viability in absence of TNF, OD540 (SV-80 cells) [OD540] | Cell viability upon treatment with TNF (500 U/ml), no pretreatment, OD540 (SV-80 cells) [OD540] | Cell viability upon treatment with TNF (500 U/ml), no pretreatment, % (SV-80 cells) [%]
N[C@H]1C(O)O[C@H](CO)[C@H](O)[C@@H]1O (stereo partly drawn) [GalN, D-galactosamine] | sensitize mice to the lethal effect of TNF and IL-1 |  |  |  |  |  |  |  | 
CCCCCCCCCCCCCC(=O)OC1C(C)C2(O)C(C=C(CO)CC3(O)C(=O)C(C)=CC32)C2C(C)(C)C12OC(C)=O (stereo not drawn) [PMA, 4-beta-phorbol-12-myristate-13-acetate] |  | affect only the number of binding sites for TNF and not their affinity |  |  |  |  |  |  | 
Cc1c2oc3c(C)ccc(C(=O)N[C@@H]4C(=O)N[C@H](C(C)C)C(=O)N5CCC[C@H]5C(=O)N(C)CC(=O)N(C)[C@@H](C(C)C)C(=O)O[C@@H]4C)c3nc-2c(C(=O)N[C@@H]2C(=O)N[C@H](C(C)C)C(=O)N3CCC[C@H]3C(=O)N(C)CC(=O)N(C)[C@@H](C(C)C)C(=O)O[C@@H]2C)c(N)c1=O [actinomycin D] (I: T[dV]P[Sar][NMeV] / II: T[dV]P[Sar][NMeV]; ester I:1-I:C, II:1-II:C; linker I:N-II:N via Actinocin(9to1)) | sensitize mice to the lethal effect of TNF and IL-1 |  | 0.215 | 88 | 0.236 | 97 | 0.243 | 0.052 | 21
C[C@@H]1C[C@@H]([C@H](O)CC2CC(=O)NC(=O)C2)C(=O)[C@@H](C)C1 [cycloheximide] |  |  | 0.163 | 72 | 0.195 | 86 | 0.226 | 0.020 | 9
CC[C@H]1CN2CCc3cc(OC)c(OC)cc3[C@@H]2C[C@@H]1C[C@H]1NCCc2cc(OC)c(OC)cc21 [emetine] |  |  | 0.220 | 84 | 0.234 | 89 | 0.262 | 0.029 | 11
